Data reported in US10550143B2, “C,O-spiro aryl glycoside compounds, preparation therefor and use thereof” (SHANGHAI INSTITUTE OF MATERIA MEDICA, CHINESE ACADEMY OF …, priority 2015, dated 2020).

Target: T1, human sodium-glucose cotransporter 2 (SGLT2) (Homo sapiens, UniProt P31639)
T1 construct: expressed in transfected cells; host or cells: NIH3T3 (mouse fibroblast) cells expressing hSGLT2
T1 sequence (P31639 1-672): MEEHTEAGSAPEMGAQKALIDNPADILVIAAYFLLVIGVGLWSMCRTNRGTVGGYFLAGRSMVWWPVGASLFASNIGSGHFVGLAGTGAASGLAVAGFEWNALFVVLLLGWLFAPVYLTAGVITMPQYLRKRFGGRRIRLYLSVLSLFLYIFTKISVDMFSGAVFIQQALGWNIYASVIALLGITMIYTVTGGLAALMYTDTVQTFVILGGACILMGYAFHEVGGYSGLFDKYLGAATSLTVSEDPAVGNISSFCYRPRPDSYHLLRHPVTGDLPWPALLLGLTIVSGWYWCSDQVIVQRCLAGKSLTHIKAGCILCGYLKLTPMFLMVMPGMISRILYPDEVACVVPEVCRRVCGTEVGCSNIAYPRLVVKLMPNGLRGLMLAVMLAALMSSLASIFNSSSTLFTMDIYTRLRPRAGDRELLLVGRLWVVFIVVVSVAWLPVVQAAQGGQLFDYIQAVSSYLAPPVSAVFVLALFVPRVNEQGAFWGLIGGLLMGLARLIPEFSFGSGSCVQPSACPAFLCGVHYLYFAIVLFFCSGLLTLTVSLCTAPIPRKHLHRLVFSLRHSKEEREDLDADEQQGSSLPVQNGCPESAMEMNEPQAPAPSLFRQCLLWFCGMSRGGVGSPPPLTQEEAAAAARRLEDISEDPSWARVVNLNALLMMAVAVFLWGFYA
Experiment: In vitro SGLT2 inhibition, methyl-α-D-[U-14C]glucopyranoside uptake in NIH3T3-hSGLT2 cells
Format: cell-based
In short: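 NIH3T3-hSGLT2 cells (40000/well, gelatin-coated, 2 mM sodium butyrate the next day) were preincubated 30 min in KRH-Na+, then given compound plus uptake buffer with methyl-α-D-[U-14C]glucopyranoside and ⅙ mM methyl-α-D-glucopyranoside. Uptake was read by scintillation counting, with KRH-acetylcholine as background.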

Selectivity (IC50 SGLT1/IC50 SGLT2): 1450
inhibition at 0.01 µM (SGLT2, 10 nM, read-out: % Inhibition rate ± SD 10 nM): 67 ± 4.9%
inhibition at 0.1 µM (SGLT2, 100 nM, read-out: % Inhibition rate ± SD 100 nM): 86.1 ± 2.4%
IC50 (read-out: IC50 ± SD SGLT2): 1.42 ± 0.2 nM
Structure (SMILES): CCc1ccc(Cc2cc3c(cc2Cl)CO[C@]32O[C@H](C)[C@@H](O)[C@H](O)[C@H]2O)s1 [Example A28, (1S,3′R,4′S,5′S,6′R)-6′-methyl-6-((5-ethylthienyl)-2-methyl)-5-chloro-3′,4′,5′,6′-tetrahydro-3H-spiro[isobenzofuran-1,2′-pyran]-3′,4′,5′-triol]
